Values of other authors, collected in EP0630652A2, “Contrast media” (NYCOMED SALUTAR, INC., priority 1991, dated 1993).

How the values were obtained:
[1] = Unger et al. Invest. Radiol. 21: 802 (1986)
[2] = Caussen et al. ROFO 148: 683

Row | Structure (SMILES) | LD₅₀ [1] [mmol/kg] | side effect ([2]; GI tract use) | contrast improvement in the GI tract ([2]; MRI)
1 | O=C([O-])CN(CCN(CC(=O)[O-])CC(=O)[O-])CCN(CC(=O)[O-])CC(=O)[O-].[Yb+3] [ytterbium DTPA] | 10 |  | 
2 | O=C([O-])CN(CCN(CC(=O)[O-])CC(=O)O)CCN(CC(=O)[O-])CC(=O)O.[Gd+3] [GdDTPA] |  | diarrhoea | relatively poor
